The target of one assay is MCL-1 (Homo sapiens (Human), UniProt Q07820, K194A/K197A/R201A). As to the kind of experiment: Protein-protein interaction assay MCL-1/Noxa BH3 peptide (MCL-1 assay, TR-FRET). The class given is binding. To be noted: MCL-1 Assay IC50 (median). A digest of the protocol: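 Competition TR-FRET with MBP-MCL-1 (aa 173-321) at 1 nM final and biotinylated Noxa BH3 peptide, pH 7 Tris buffer. Compounds pre-incubated 10 min at 22° C., then 1 h at 22° C. and overnight at 4° C. 665/620 nm ratio normalized to DMSO; IC50 from 4-parameter fit.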
Background: In TR-FRET formats the signal depends on donor and acceptor labels being close together.

Another assay deals with BCL-2 (Homo sapiens (Human), UniProt P10415). As to the kind of experiment: Protein-protein interaction assay BCL-2/Bad BH3 peptide (BCL-2 assay, TR-FRET). The class given is binding. To be noted: read-out: BCL-2 Assay IC50 (median). The method, then: Assay 3 Protein-Protein Interaction Assay: BCL-2/Bad BH3 Peptide (BCL-2 Assay)
The dose-dependent inhibition by the compounds described in this invention of the interaction between BCL-2 and the BH3 domain of Bad (both human) was determined using a steady state binding competition assay with time-resolved fluorescence energy transfer (TR-FRET) readout. For that purpose BCL-2 (amino acids 1-211, C-terminal fused to a hexahistidine (6×His) tag (SEQ ID 5) and a synthetic Bad BH3-derived peptide of sequence Biotin-PEG2-PEG2-[…]-Nle-[…]-amide (SEQ ID 4) served as protein receptor and tracer ligand respectively. The recombinant BCL-2 protein (expressed in E. coli) was purchased from BPS Bioscience (San Diego, Calif., USA). The Bad BH3-derived peptide can be obtained from e.g. Biosyntan (Berlin, Germany).
In the assay 11 different concentrations of each compound (0.1 nM, 0.33 nM, 1.1 nM, 3.8 nM, 13 nM, 44 nM, 0.15 μM, 0.51 μM, 1.7 μM, 5.9 μM and 20 μM) were typically measured as duplicates in the same microtiter plate. For that, 100-fold concentrated DMSO solutions were prepared by serial dilutions (1:3.4) of a 2 mM stock solution in a clear, 384-well microtiter plate (Greiner Bio-One, Frickenhausen, Germany). From there, 50 nl were transferred in a dark test plate (Greiner Bio-One, Frickenhausen, Germany). The assay was initiated by addition of 2 μL of a 2,5-fold concentrated His-BCL-2 solution (usually for a 1 nM end concentration in 5 μL reaction volume) in aqueous assay buffer [50 mM Tris/HCl pH 7, 100 mM sodium chloride (NaCl), 50 mM potassium fluoride (KF), 0.005% Tween-20, 2 mM DTT, 0.1% bovine gamma globulin (BGG)] to the compounds in the assay plate. This was followed by a 10-minute incubation step at 22° C. for pre-equilibration of the putative complex between His-BCL-2 and the compounds. After that, 3 μL of a 1.67-fold concentrated solution (in assay buffer) consisting of Bad BH3-derived peptide (1 nM end concentration) and TR-FRET detection reagents [1.67 nM anti-His-Eu cryptate and 1.67 nM streptavidin-XL665 (both from Cisbio Bioassays, Codolet, France)], were added.
The mixture was incubated in the dark for one hour at 22° C. and then overnight at 4° C. The formation of BCL-2/Bad complexes was determined by measuring the resonance energy transfer of the anti-His-Eu-cryptate antibody to the streptavidin-XL665 present in the reaction. For that purpose, the fluorescence emission at 620 nm and 665 nm after excitation at 330-350 nm was measured in a TR-FRET measuring instrument, for instance a Rubystar or a Pherastar (both from BMG Lab Technologies, Offenburg, Germany) or a Viewlux (Perkin-Elmer). The ratio of the emission at 665 nm and at 622 nm was used as indicator of the amount of BCL-2/Bad complexes present.
The resulting data (ratio) were normalized, taking 0% inhibition as the mean value of control measurements (usually 32 data points) where all reagents were included. In this case 50 nl DMSO were used instead of compounds. […] IC50 values were determined by regression analysis based on a 4 parameter equation (minimum, maximum, IC50, Hill; Y=Max+(Min−Max)/(1+(X/IC50)^Hill) using the Screener Software (Genedata).

SMILES strings stand for the structures.

BCL-2, sequence (P10415 1-211): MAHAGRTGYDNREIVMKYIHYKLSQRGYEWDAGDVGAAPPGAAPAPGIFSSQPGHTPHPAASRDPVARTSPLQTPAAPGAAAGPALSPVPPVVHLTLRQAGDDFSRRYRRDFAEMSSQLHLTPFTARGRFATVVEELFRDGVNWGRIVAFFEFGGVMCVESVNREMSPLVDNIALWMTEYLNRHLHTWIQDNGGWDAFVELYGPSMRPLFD
MCL-1, sequence (Q07820 whole entry, looked up, stated change not applied, the tested form may be a part): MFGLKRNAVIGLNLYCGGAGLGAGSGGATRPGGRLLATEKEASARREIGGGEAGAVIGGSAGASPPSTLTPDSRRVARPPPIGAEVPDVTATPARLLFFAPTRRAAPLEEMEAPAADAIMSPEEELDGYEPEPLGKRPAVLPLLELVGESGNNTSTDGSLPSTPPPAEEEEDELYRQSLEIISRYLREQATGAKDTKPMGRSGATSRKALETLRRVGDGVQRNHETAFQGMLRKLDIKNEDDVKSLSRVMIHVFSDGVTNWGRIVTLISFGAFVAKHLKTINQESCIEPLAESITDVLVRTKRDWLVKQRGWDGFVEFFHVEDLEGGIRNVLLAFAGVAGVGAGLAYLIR

For the compound `Cc1c2c(nn1C)C(CCN1CCOCC1)OCCCCn1c(C(=O)O)c(CCCOc3cccc4ccccc34)c3ccc(Cl)c-2c31` (racemic) [Example 13, (rac)-4-chloro-2,3-dimethyl-15-[2-(morpholin-4-yl)ethyl]-7-{3-[(naphthalen-1-yl)oxy]propyl}-2,10,11,12,13,15-hexahydropyrazolo[4′,3′:9,10][1,6]oxazacycloundecino[8,7,6-hi]indole-8-carboxylic Acid], the figures for the IC50 on MCL-1 and on BCL-2 were 1.6 nM and > 20000 nM, respectively.
`Cc1c2c(nn1C)C(CCN1CCOCC1)OCCCCn1c(C(=O)O)c(CCCOc3cccc4cc(F)ccc34)c3ccc(Cl)c-2c31` (racemic) [Example 16, (rac)-4-chloro-7-{3-[(6-fluoronaphthalen-1-yl)oxy]propyl}-2,3-dimethyl-15-[2-(morpholin-4-yl)ethyl]-2,10,11,12,13,15-hexahydropyrazolo[4′,3′:9,10][1,6]oxazacycloundecino[8,7,6-hi]indole-8-carboxylic Acid]: the values for the 50% inhibitory concentration (IC50) against MCL-1 and at BCL-2 were 2 nM and > 20000 nM, respectively.
Regarding `Cc1c2c(nn1C)C(CCN1CCOCC1)OCCCCn1c(C(=O)O)c(CCCOc3cccc4cc(F)ccc34)c3ccc(F)c-2c31` (racemic) [Example 19, (rac)-4-fluoro-7-{3-[(6-fluoronaphthalen-1-yl)oxy]propyl}-2,3-dimethyl-15-[2-(morpholin-4-yl)ethyl]-2,10,11,12,13,15-hexahydropyrazolo[4′,3′:9,10][1,6]oxazacycloundecino[8,7,6-hi]indole-8-carboxylic Acid], the half-maximal inhibitory concentration (IC50) on MCL-1 was 1.6 nM; at BCL-2, > 20000 nM.
The corresponding values for `CCc1c2c(nn1C)C(CCN1CCOCC1)OCCCCn1c(C(=O)O)c(CCCOc3cccc4cc(F)ccc34)c3ccc(Cl)c-2c31` (racemic) [Example 22, (rac)-4-chloro-3-ethyl-7-{3-[(6-fluoronaphthalen-1-yl)oxy]propyl}-2-methyl-15-[2-(morpholin-4-yl)ethyl]-2,10,11,12,13,15-hexahydropyrazolo[4′,3′:9,10][1,6]oxazacycloundecino[8,7,6-hi]indole-8-carboxylic Acid] are 1.5 nM and > 20000 nM.
For `CCC1OCCCCn2c(C(=O)O)c(CCCOc3cccc4ccccc34)c3ccc(Cl)c(c32)-c2c1nn(C)c2C` (racemic) [Example 25, (rac)-4-chloro-15-ethyl-2,3-dimethyl-7-{3-[(naphthalen-1-yl)oxy]propyl}-2,10,11,12,13,15-hexahydropyrazolo[4′,3′:9,10][1,6]oxazacycloundecino[8,7,6-hi]indole-8-carboxylic Acid], the half-maximal inhibitory concentration (IC50) at MCL-1 was 1.9 nM; at BCL-2, > 20000 nM.
Turning to `Cc1c2c(nn1C)C(CCO)OCCCCn1c(C(=O)O)c(CCCOc3cccc4ccccc34)c3ccc(Cl)c-2c31` (racemic) [Example 26, (rac)-4-chloro-15-(2-hydroxyethyl)-2,3-dimethyl-7-{3-[(naphthalen-1-yl)oxy]propyl}-2,10,11,12,13,15-hexahydropyrazolo[4′,3′:9,10][1,6]oxazacycloundecino[8,7,6-hi]indole-8-carboxylic Acid], the half-inhibitory concentration (IC50) against MCL-1 is 1.1 nM; on BCL-2 it was > 20000 nM.
On the same counts, the results for `Cc1c2c(nn1C)C(C1CC1)OCCCCn1c(C(=O)O)c(CCCOc3cccc4ccccc34)c3ccc(Cl)c-2c31` (racemic) [Example 28, (rac)-4-Chloro-15-cyclopropyl-2,3-dimethyl-7-{3-[(naphthalen-1-yl)oxy]propyl}-2,10,11,12,13,15-hexahydropyrazolo[4′,3′:9,10][1,6]oxazacycloundecino[8,7,6-hi]indole-8-carboxylic Acid] are 1.1 nM and > 20000 nM.
On the same counts, the results for `COCCC1OCCCCn2c(C(=O)O)c(CCCOc3cccc4ccccc34)c3ccc(Cl)c(c32)-c2c1nn(C)c2C` (racemic) [Example 37, (rac)-4-chloro-(15-rac)-(2-methoxyethyl)-2,3-dimethyl-7-{3-[(naphthalen-1-yl)oxy]propyl}-2,10,11,12,13,15-hexahydropyrazolo[4′,3′:9,10][1,6]oxazacycloundecino[8,7,6-hi]indole-8-carboxylic Acid] are 0.48 nM and > 20000 nM.
Take `CCc1c2c(nn1C)C(CCOC)OCCCCn1c(C(=O)O)c(CCCOc3cccc4cc(F)ccc34)c3ccc(Cl)c-2c31` (racemic) [Example 41, (rac)-4-chloro-3-ethyl-7-{3-[(6-fluoronaphthalen-1-yl)oxy]propyl}-(15-rac)-(2-methoxyethyl)-2-methyl-2,10,11,12,13,15-hexahydropyrazolo[4′,3′:9,10][1,6]oxazacycloundecino[8,7,6-hi]indole-8-carboxylic Acid]: the figures for the IC50 on MCL-1 and on BCL-2 were 0.52 nM and 18100 nM, respectively.
As to `CCc1c2c(nn1C)C(CCO)OCCCCn1c(C(=O)O)c(CCCOc3cccc4cc(F)ccc34)c3ccc(Cl)c-2c31` (racemic) [Example 44, (rac)-4-chloro-3-ethyl-7-{3-[(6-fluoronaphthalen-1-yl)oxy]propyl}-(15-rac)-(2-hydroxyethyl)-2-methyl-2,10,11,12,13,15-hexahydropyrazolo[4′,3′:9,10][1,6]oxazacycloundecino[8,7,6-hi]indole-8-carboxylic Acid], the IC50 against MCL-1 is 0.39 nM; on BCL-2, > 20000 nM.
As to `CCc1c2c(nn1C)C(CCN1CCOCC1)OCCCCn1c(C(=O)O)c(CCCOc3cccc4cc(F)ccc34)c3ccc(F)c-2c31` (racemic) [Example 49, (rac)-3-Ethyl-4-fluoro-7-{3-[(6-fluoronaphthalen-1-yl)oxy]propyl}-2-methyl-(15-rac)-[2-(morpholin-4-yl)ethyl]-2,10,11,12,13,15-hexahydropyrazolo[4′,3′:9,10][1,6]oxazacycloundecino[8,7,6-hi]indole-8-carboxylic Acid], the IC50 was 0.85 nM against MCL-1 and > 20000 nM on BCL-2.
Regarding `CCc1c2c(nn1C)C(CC(C)(C)O)OCCCCn1c(C(=O)O)c(CCCOc3cccc4cc(F)ccc34)c3ccc(Cl)c-2c31` (racemic) [Example 52, (rac)-4-chloro-3-ethyl-7-{3-[(6-fluoronaphthalen-1-yl)oxy]propyl}-(15-rac)-(2-hydroxy-2-methylpropyl)-2-methyl-2,10,11,12,13,15-hexahydropyrazolo[4′,3′:9,10][1,6]oxazacycloundecino[8,7,6-hi]indole-8-carboxylic Acid], the IC50 at MCL-1 worked out at 0.88 nM; on BCL-2, 15900 nM.
As for `CCc1c2c(nn1C)C(c1ccccc1)OCCCCn1c(C(=O)O)c(CCCOc3cccc4cc(F)ccc34)c3ccc(Cl)c-2c31` (racemic) [Example 59, (rac)-4-chloro-3-ethyl-7-{3-[(6-fluoronaphthalen-1-yl)oxy]propyl}-2-methyl-(15-rac)-phenyl-2,10,11,12,13,15-hexahydropyrazolo[4′,3′:9,10][1,6]oxazacycloundecino[8,7,6-hi]indole-8-carboxylic Acid], the concentration for half-maximal inhibition (IC50) against MCL-1 was 2.7 nM; at BCL-2, 13200 nM.
The corresponding values for `CCc1c2c(nn1C)C(CCCN1CCOCC1)OCCCCn1c(C(=O)O)c(CCCOc3cccc4cc(F)ccc34)c3ccc(Cl)c-2c31` (racemic) [Example 65, (rac)-4-chloro-3-ethyl-7-{3-[(6-fluoronaphthalen-1-yl)oxy]propyl}-2-methyl-(15-rac)-[3-(morpholin-4-yl)propyl]-2,10,11,12,13,15-hexahydropyrazolo[4′,3′:9,10][1,6]oxazacycloundecino[8,7,6-hi]indole-8-carboxylic Acid] are 1.3 nM and > 20000 nM.

A word on the IC50: it is the concentration that gives 50% inhibition.

For the origin of these results see US11440923B2, “Substituted macrocyclic indole derivatives” (Bayer Aktiengesellschaft, priority 2017, dated 2022).
